Data on 10 molecules can be found in patent US9273043B2, “TRPV1 antagonists including dihydroxy substituent and uses thereof” (Purdue Pharma L.P., priority 2011, dated 2016).

The target in data set [1] is T1, human TRPV1 (Homo sapiens (Human), UniProt Q8NER1). Briefly: Capsaicin-based assay, Protocol 2, TRPV1/CHO cells (hCAP-CHO), Fluo-4 FLIPR. In kind it is cell-based. Conditions: 100 nM capsaicin, mean ± SEM. The text has this: The TRPV1/CHO cell line was generated as described below. […] The resulting PCR products were purified from agarose gels using Gel Band Purification Kit (GE Healthcare Bioscience) and were subcloned into pCR-Blunt vector (Invitrogen). The cloned cDNA was fully sequenced using a fluorescent dye-terminator reagent (BigDye Terminator ver3.1 Cycle Sequencing Kit, Applied Biosystems) and ABI Prism 3100 genetic analyzer (Applied Biosystems). The pCR-Blunt vector containing the hTRPV1 cDNA was subjected to restriction digestion with EcoR1. The restriction fragment was subcloned into expression vector pcDNA3.1(-) (Invitrogen) and named pcDNA3.1(-)-hVR1 plasmid. The sequence of the cDNA encoding TRPV1 is available at GenBank accession number AJ277028. […] The cells were transfected with the pcDNA3.1(-)-hVR1 plasmid using FuGENE6 (Roche) according to the manufacturer's protocol. 24 hr after transfection, neomycin-resistant cells were selected using 1 mg/mL G418 (Nacalai Tesque). […] The cells expressing hTRPV1 were cultured in the growth medium supplemented with 1 mg/mL G418. […] Capsaicin-based Assay: […] Subsequently, the cells were loaded by incubation in 0.1 mL of wash buffer containing Fluo-4 at 3 μM final concentration. After 1 hour, the cells were washed twice with 0.2 mL wash buffer and resuspended in 0.1 mL wash buffer. The plates were then transferred to a Fluorescence Imaging Plate Reader (Molecular Devices). Fluorescence intensity was monitored for 15 seconds to establish a baseline. […] The final concentration of the compound was adjusted to range from 100 μM to 1.5625 μM. […] Data were collected over the entire time course and analyzed using Excel and the curve-fitting formula GraphPad Prism.
T1 sequence (Q8NER1 whole entry, looked up, the tested form may be a part): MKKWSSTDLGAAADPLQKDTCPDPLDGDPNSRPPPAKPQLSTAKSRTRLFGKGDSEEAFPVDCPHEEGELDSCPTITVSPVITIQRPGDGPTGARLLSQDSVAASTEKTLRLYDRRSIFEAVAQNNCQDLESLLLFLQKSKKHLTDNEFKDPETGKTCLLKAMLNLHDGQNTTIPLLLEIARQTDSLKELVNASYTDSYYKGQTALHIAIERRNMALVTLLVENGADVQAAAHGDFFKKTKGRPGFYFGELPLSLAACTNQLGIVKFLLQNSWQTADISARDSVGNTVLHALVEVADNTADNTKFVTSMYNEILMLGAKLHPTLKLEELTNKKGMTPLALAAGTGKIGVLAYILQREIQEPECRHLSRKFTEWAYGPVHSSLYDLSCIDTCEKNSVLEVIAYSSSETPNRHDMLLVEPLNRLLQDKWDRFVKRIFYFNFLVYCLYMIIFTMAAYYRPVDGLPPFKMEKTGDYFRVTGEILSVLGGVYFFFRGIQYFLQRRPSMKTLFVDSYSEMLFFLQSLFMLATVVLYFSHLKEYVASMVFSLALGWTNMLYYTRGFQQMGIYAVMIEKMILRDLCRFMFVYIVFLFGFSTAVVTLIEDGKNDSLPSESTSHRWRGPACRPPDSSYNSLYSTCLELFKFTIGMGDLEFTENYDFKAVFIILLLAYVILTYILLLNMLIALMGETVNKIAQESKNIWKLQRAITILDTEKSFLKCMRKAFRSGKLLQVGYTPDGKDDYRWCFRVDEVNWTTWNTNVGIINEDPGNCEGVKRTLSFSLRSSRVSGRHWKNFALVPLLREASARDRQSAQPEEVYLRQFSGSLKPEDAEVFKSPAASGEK

In data set [2] the target is T1, human TRPV1. Description: pH-based assay, Protocol 2, TRPV1/CHO cells (hpH-CHO), Fura-2 Ca2+ influx. In kind it is cell-based. Conditions: pH 5.0-5.1 (H2SO4), mean ± SEM. The method, then: For Protocol 2, a Chinese Hamster Ovary cell line (CHO) that has been engineered to constitutively express human recombinant TRPV1 was used (TRPV1/CHO cells). The TRPV1/CHO cell line was generated as described below.
TRPV1/CHO cells were seeded in the 96-well clear-bottom black-wall plate (Nunc) at densities of 1-2×10^4 cells/well and grown in 100 μL of culture medium (alpha-MEM supplemented with 10% FBS, 20 mM HEPES, 1 mg/mL geneticin and 1% antibiotic-antimycotic mixed stock solution) for 1-2 days before the experiment.
(1) Culture medium was removed using an 8-channel-pipette (Rainin, USA) from the 96-well plate and the wells were refilled with 100 μL of loading buffer (20 mM HEPES, 115 mM NaCl, 5.4 mM KCl, 0.8 mM MgCl2, 1.8 mM CaCl2, 13.8 mM D-glucose, 2.5 mM probenecid, pH 7.4) containing 5 μM Fura-2 AM (Dojin, Japan).
(2) The 96-well plate was incubated at 37° C. for 45 min.
(3) The loading buffer was removed from each well. The cells were subsequently washed twice with 150 μL of measuring buffer (20 mM HEPES, 115 mM NaCl, 5.4 mM KCl, 0.8 mM MgCl2, 5.0 mM CaCl2, 13.8 mM D-glucose, 0.1% BSA, pH 7.4) (no probenecid). The wells were then refilled with 80 μL of measuring buffer.
(4) After an incubation at 4° C. for 15 min, the 96-well plate was transferred to a model FDSS-3000 plate reader apparatus (Hamamatsu Photonics K.K., Japan).
(5) The Fura-2 fluorescent intensity was monitored at a wavelength of 340 nm and at 380 nm, respectively, at a rate of 0.5 Hz for a total of 240 seconds. After 16 time points (32 sec) of baseline detection, 20 μL of agonist solution was added to each well. The final volume was 100 μL/well.
(6) Fluorescence intensity ratio refers to the fluorescence intensity at 340 nm over the fluorescence intensity at 380 nm at a particular time point. The baseline was set as the average of the fluorescent intensity ratios for the first 16 time points before the addition of agonist solution. The maximum response was the highest fluorescent intensity ratio during the 60 time points following addition of agonist solution.
(7) Maximal signal ratios from each well were calculated as output data using the FDSS-3000 analysis program. Data were analyzed using Excel (Microsoft) and XLfit (idbs) software.
In an “agonist plate,” two different agonist solutions with different H2SO4 concentrations were used for the pH assay (see, e.g., FIG. 3A of U.S. Patent Application Publication No. US 2009/0170868 A1). For the first half of a 96-well plate one agonist solution was used; for the second half the other agonist solution was used. The agonist solutions were obtained by diluting sulfuric acid (1M H2SO4) with measuring buffer. The concentrations for the two agonist solutions were determined as described above in Section 2 of Protocol 2.
The sulfuric acid concentrations between the two agonist solutions differed by 0.5 mM. In the experiment described in Section 2 of Protocol 2, the sulfuric acid concentrations in the agonist solutions were determined to be 16 mM and 16.5 mM, respectively. After 1:4 dilution of the agonist solutions, the final sulfuric acid concentration was 3.2 mM and 3.3 mM, respectively. The resulting pH value for the pH assay was 5.0 to 5.1.
Test compounds were dissolved in DMSO to yield 1 mM stock solutions. The stock solutions were further diluted using DMSO in […] serial dilution steps with 6 points (1000, 250, 62.5, 15.625, 3.9062, and 0.977 μM). The thereby-obtained solutions were further diluted in measuring buffer (1:100) as 10× stock serial dilutions with a DMSO concentration of 1%. 10 μL of a 10× stock was added into each well of an “antagonist plate” (see step 3.3.(4) below). Thus, the final concentrations of antagonists was as follows: 0.977, 3.906, 15.63, 62.5, 250, and 1000 nM containing 0.1% DMSO (see, e.g., FIG. 3B of U.S. Patent Application Publication No. US 2009/0170868 A1).
Steps (1) and (2) of this Assay were the same as steps 2.2.(1) and 2.2.(2), respectively, of Protocol 2. […]

Data set [3] in a line: Aqueous solubility at pH 1.2 and pH 6.8. In kind it is physicochemical. Conditions: aqueous solution.
A short description of data set [4]: In vivo assay of body temperature increase (rectal body temperature). Also on record: species or system rat. The following applies: rats, oral, 10 mL/kg of 1 mg/mL in 0.5% methylcellulose; greatest ΔTb versus vehicle control at 0.5, 1 or 2 hrs. The source says:
Hyperthermia or undesirable elevation in animal body temperature is known to be an undesirable side-effect accompanying the administration of certain TRPV1 antagonists (Gavva, “Body-temperature maintenance as the predominant function of the vanilloid receptor TRPV1,” Trends Pharmacol. Sci. 29(11):550-557 (2008)).
Test Animals: Selection of rats (Crl/SD rats, 7 weeks, male) was based on rectal body temperature measured during the morning of the day of dosing as described below. In addition, to minimize spontaneous, stress-induced increases in body temperature, rats were acclimated in advance to both the rectal measurement procedure and to being handled and dosed. All lodging and testing took place in animal care laboratories with constant room temperature and humidity. The rats were free to move and ingest food and water throughout. Each rat was coded with a colored line on the tail, housed in a separate cage, and permitted the normal range of movement. Immediately before each body temperature measurement, a rat was transferred to a measurement cage. To reduce stress which could influence its body temperature, each rat was covered with towels during the measurement. A thermistor probe was then carefully inserted into the rectum of each rat and left in place until the temperature reading on the digital display had stabilized; this value was recorded.
Assay: On the day before dosing, rectal body temperature was measured at 9:00, 10:00, 11:00, 12:30, 13:30, 14:30, and 15:30 o'clock to familiarize the rats with the measurement procedure prior to administration of the test or control treatments. The rats were also dosed by oral gavage without vehicle at 12:30 o'clock to acclimate and familiarize them with the handling and dosing procedure.
On the day of dosing, only rats with rectal body temperatures within the range of from 37.0° C. to 37.7° C. were selected for study. Rectal body temperatures were measured at 9:00, 10:00, and 11:00 o'clock. Rats were excluded from the study if either their rectal body temperature was over 37.9° C. at 10:00 o'clock or was outside the range of from 37.0° C. to 37.7° C. at 11:00 o'clock. The selected rats were divided into several groups based on their rectal body temperatures at 11:00 o'clock. Rectal body temperatures of the selected rats were measured again at 12:30 o'clock and any rat with a rectal body temperature of 38.0° C. or greater was also excluded from the study.
Following assignment to either a test or control group, a test compound or a control was administered to the rats. Each test compound was dissolved in a vehicle of 0.5% aqueous methylcellulose solution and the final concentration of the test compound was adjusted to 1 mg/mL. Each test compound was orally administered once at a dose of 10 mL/kg. The same volume of the control (vehicle only) was administered once to the control group. Rectal body temperatures were measured at the following time points: 0.5, 1, and 2 hrs after administration.
The body temperature increase (ΔTb) for each test compound was calculated by subtracting, at each time point, the average temperature of the control group from the average temperature of the group administered that test compound. The greatest ΔTb obtained for each test compound at any of the time points is shown in Table 11 below, along with the ΔTb of the control.

The mark [5] stands for this setting: pH 1.2, simulated gastric fluid, read-out: aqueous solubility at pH 1.2.
The mark [6] stands for this setting: pH 6.8, aqueous buffer, read-out: aqueous solubility at pH 6.8.

Molecules are shown by their SMILES. Converted amounts (≈) assume the structure as drawn. Read-outs that look alike come from different tables or passages of the source.

For orientation: IC50 means the concentration at which inhibition is half-maximal. Lower therefore signals higher potency. For the molecule `C[C@@H]1CN(C(=O)Nc2nc3ccccc3s2)CCN1c1ncc([C@H](O)CO)cc1F` [A122(b), (R)—N-(benzo[d]thiazol-2-yl)-4-(5-((S)-1,2-dihydroxyethyl)-3-fluoropyridin-2-yl)-3-methylpiperazine-1-carboxamide], the IC50 amounted to 444 ± 79 nM against human TRPV1 [1] and 670 ± 94 nM at human TRPV1 [2].
As to `C[C@H]1CN(C(=O)Nc2nc3ccccc3s2)CCN1c1ncc([C@H](O)CO)cc1F` [A122(c), (S)—N-(benzo[d]thiazol-2-yl)-4-{5-[(S)-1,2-dihydroxyethyl]-3-fluoropyridin-2-yl}-3-methylpiperazine-1-carboxamide], the IC50 against human TRPV1 [1] was found to be 178 ± 29 nM; on human TRPV1 [2], 553 ± 12 nM.
On to `C[C@@H]1CN(c2ncc([C@@H](O)CO)cc2F)CCN1C(=O)Nc1nc2ccc(Cl)cc2s1` [A123(e), (R)—N-(6-chlorobenzo[d]thiazol-2-yl)-4-(5-((R)-1,2-dihydroxyethyl)-3-fluoropyridin-2-yl)-2-methylpiperazine-1-carboxamide], for which the IC50 amounted to 11.5 ± 1.4 nM at human TRPV1 [1] and 0.4 nM against human TRPV1 [2].
The corresponding values for `Cc1ccc2nc(NC(=O)N3CCN(c4ncc([C@@H](O)CO)cc4F)C[C@H]3C)sc2c1` [A126(e), (R)-4-(5-((R)-1,2-dihydroxyethyl)-3-fluoropyridin-2-yl)-2-methyl-N-(6-methylbenzo[d]thiazol-2-yl)piperazine-1-carboxamide] are 18.2 ± 2.9 nM and 0.4 nM.
The matching figures for `C[C@@H]1CN(C(=O)Nc2nc3cc(F)ccc3s2)CCN1c1ncc([C@H](O)CO)cc1F` [A155(b), (R)-4-{5-[(S)-1,2-dihydroxyethyl]-3-fluoropyridin-2-yl}-N-(5-fluorobenzo[d]thiazol-2-yl)-3-methylpiperazine-1-carboxamide]: 216 ± 57 nM and 134 ± 16 nM.
What is called solubility is the concentration that dissolves in the medium under given conditions. Regarding `C[C@H]1CN(c2ncc([C@@H](O)CO)cc2F)CCN1C(=O)Nc1nc2cc(F)ccc2s1` [A155(d), (S)-4-{5-[(R)-1,2-dihydroxyethyl]-3-fluoropyridin-2-yl}-N-(5-fluorobenzo[d]thiazol-2-yl)-2-methylpiperazine-1-carboxamide], the solubility in data set [3] (setting [5]) was above 50 µM; in data set [3] (setting [6]), 4 µM (≈ 1.8 µg/mL). This molecule came in with an IC50 on human TRPV1 [1] of 168 ± 42 nM. For the same molecule, in data set [4], the “ΔTb, body temperature increase” value was found to be 0.1 °C.
Regarding `C[C@@H]1CN(c2ncc([C@@H](O)CO)cc2F)CCN1C(=O)Nc1nc2cc(F)ccc2s1` [A155(e), (R)-4-{5-[(R)-1,2-dihydroxyethyl]-3-fluoropyridin-2-yl}-N-(5-fluorobenzo[d]thiazol-2-yl)-2-methylpiperazine-1-carboxamide], the solubility in data set [3] (setting [5]) was above 50 µM; in data set [3] (setting [6]) it was 5 µM (≈ 2.25 µg/mL). The molecule further showed an IC50 against human TRPV1 [1] of 16.5 ± 4.2 nM. For the same molecule, the “ΔTb, body temperature increase” value in data set [4] turned out to be 0.1 °C.
`C[C@H](O)[C@@H](O)c1cnc(N2CCN(C(=O)Nc3nc4ccccc4s3)C[C@H]2C)c(F)c1` [B122(j), (R)—N-(benzo[d]thiazol-2-yl)-4-{5-[(1S,2S)-1,2-dihydroxypropyl]-3-fluoropyridin-2-yl}-3-methylpiperazine-1-carboxamide]: the IC50 was 586 ± 78 nM against human TRPV1 [1] and 1720 nM on human TRPV1 [2].
On human TRPV1 [1], `C[C@H](O)[C@@H](O)c1cnc(N2CCN(C(=O)Nc3nc4cc(F)ccc4s3)[C@@H](C)C2)c(F)c1` [B155(h), (S)-4-{5-[(1S,2S)-1,2-dihydroxypropyl]-3-fluoropyridin-2-yl}-N-(5-fluorobenzo[d]thiazol-2-yl)-2-methylpiperazine-1-carboxamide] displayed an IC50 of 107 ± 20 nM.
As to `O=C(Nc1ccc(C(F)(F)F)c(Cl)c1)N1CC=C(c2ncccc2F)CC1` [Compound 215], the solubility in data set [3] (pH 1.2, read-out: aqueous solubility at pH 1.2) stood at 9.6 µM (≈ 3.84 µg/mL); in data set [3] (pH 6.8, read-out: aqueous solubility at pH 6.8), 0.6 µM (≈ 0.24 µg/mL).
